Values of other authors as cited in PMC7094298 (Febs Letters, 2009).
“Also recorded” adds a separate entry of the source.

Experiments:
[1] = tested on: RV and other picornaviral 3Cpro
SARS-CoV 3CLpro = SARS-CoV 3CLpro (Severe acute respiratory syndrome coronavirus, UniProt P0C6X7)

## CCOC(=O)/C=C/[C@H](C[C@@H]1CCNC1=O)NC(=O)[C@@H](CC(=O)[C@@H](NC(=O)c1cc(C)on1)C(C)C)Cc1ccc(F)cc1 [AG7088]
[1]
  inhibition of RV and other picornaviral 3Cpro: potent inhibitor
SARS-CoV 3CLpro
  inhibition of SARS-CoV 3CLpro: did not inhibit; also recorded: failed to inhibit
